24 compounds from US11149033B2, “Heteroaryl compound, enantiomer, diastereomer or pharmaceutically acceptable salt thereof, and antiviral composition containing same as active ingredient” (priority 2016, dated 2021) can be followed below.

Like-named read-outs stand apart in the source and are kept apart here. Where only a bound is given, the exact number is not on record here.

Data set [1] relates to B/Florida/04/2006. In words: Antiviral activity (drug efficacy evaluation by concentration) against B/Florida/04/2006. The class given is cell-based, B type influenza virus.
Data set [2] in a line: in vitro.
Data set [3] concerns A/Perth/16/2009 (H3N2). Nature of the data set: Antiviral activity (drug efficacy evaluation by concentration) against A/Perth/16/2009 (H3N2). The data set is classed as cell-based, A type influenza virus. The conditions noted are these: Influenza A virus.
Data set [4] relates to A/California/07/2009 (H1N1). In words: Antiviral activity (drug efficacy evaluation by concentration) against A/California/07/2009 (H1N1). The conditions noted are these: Influenza A virus. The data set is classed as cell-based, A type influenza virus.
Where [5] appears, read: CC50, third EC50/CC50 column pair (c7), beside the EC50 of c6.
[6] abbreviates: read-out: EC50 B/Florida/04/2006, B/Florida/04/2006.
Setting [7] is: CC50 B/Florida/04/2006, cytotoxicity in the B/Florida/04/2006 assay.
The mark [8] stands for this setting: H3N2, A/Perth/16/2009 (H3N2), read-out: EC50 A/Perth/16/2009 (H3N2).
The mark [9] stands for this setting: H1N1, A/California/07/2009 (H1N1), read-out: EC50 A/California/07/2009 (H1N1).

As to `Brc1ccc(Cc2nnc(CC3CCCc4ccccc43)o2)cc1` (stereo not shown) [Compound 109, 2-(4-bromobenzyl)-5-((1,2,3,4-tetrahydronaphthalen-1-yl)methyl)-1,3,4-oxadiazole], the EC50 in data set [1] turned out to be 34.7 µM; in data set [3] (H3N2, read-out: EC50), 32.4 µM; in data set [4] (H1N1, read-out: EC50), 45.9 µM. The CC50 in data set [2] (CC50, beside the EC50 of c2) was > 50 µM; in data set [2] (CC50, beside the EC50 of c4), > 50 µM; in data set [2] (setting [5]) it was > 50 µM.
With `CC(C)Cc1ccc(C(C)c2nnc(/C=C/c3ccccc3C(C)C)o2)cc1` (stereo not shown) [Compound 148, 2-(1-(4-isobutylphenyl)ethyl)-5-(2-isopropylstyryl)-1,3,4-oxadiazole], the EC50 in data set [1] worked out at 45.1 µM; in data set [3] (H3N2, read-out: EC50), 38.9 µM; in data set [4] (H1N1, read-out: EC50), 39.8 µM. Besides, the CC50 was > 50 µM in data set [2] (CC50, beside the EC50 of c2); > 50 µM in data set [2] (CC50, beside the EC50 of c4); > 50 µM in data set [2] (setting [5]).
Consider `Cc1cc(C)cc(Cc2nnc(/C=C/c3ccccc3C(C)C)o2)c1` [Compound 113, 2-(3,5-dimethylbenzyl)-5-(2-isopropylstyryl)-1,3,4-oxadiazole], for which the EC50 in data set [1] is 1.55 µM; in data set [3] (H3N2, read-out: EC50), 1.39 µM; in data set [4] (H1N1, read-out: EC50), 1.37 µM. For the same compound, the CC50 in data set [2] (CC50, beside the EC50 of c2) was 10 µM; in data set [2] (CC50, beside the EC50 of c4), 25.5 µM; in data set [2] (setting [5]), 40.2 µM.
For `Cc1ccc(F)c(Cc2nnc(/C=C/c3ccccc3C(C)C)o2)c1` [Compound 173, 2-(2-fluoro-5-methylbenzyl)-5-(2-isopropylstyryl)-1,3,4-oxadiazole], the EC50 in data set [1] was 1.91 µM; in data set [3] (H3N2, read-out: EC50), 1.71 µM; in data set [4] (H1N1, read-out: EC50), 1.77 µM. Also, the CC50 in data set [2] (CC50, beside the EC50 of c2) is 13.5 µM; in data set [2] (CC50, beside the EC50 of c4) it was 12.6 µM; in data set [2] (setting [5]), 15.8 µM.
With `CC(C)c1ccccc1CCc1nnc(Cc2ccc(OC(F)(F)F)cc2)o1` [Compound 93, 2-(2-isopropylphenethyl)-5-(4-(trifluoromethoxy)benzyl)-1,3,4-oxadiazole], the EC50 in data set [1] turned out to be 45.1 µM; in data set [3] (H3N2, read-out: EC50) it was 31.5 µM; in data set [4] (H1N1, read-out: EC50), 22.1 µM. Moreover, the CC50 in data set [2] (CC50, beside the EC50 of c2) was > 50 µM; in data set [2] (CC50, beside the EC50 of c4), > 50 µM; in data set [2] (setting [5]), > 50 µM.
Take `c1ccc(-c2ccccc2CSc2nnc(Cn3cccn3)o2)cc1` [Compound 4, 2-((1H-pyrazol-1-yl)methyl)-5-(([1,1′-biphenyl]-2-ylmethyl)thio)-1,3,4-oxadiazole]: the EC50 in data set [1] (setting [6]), in data set [3] (setting [8]) and in data set [4] (setting [9]) was > 50 µM throughout. In addition, the CC50 in data set [2] (setting [7]) was > 50 µM.
With `Brc1cccc(Cc2nnc(SCc3ccccc3-c3ccccc3)o2)c1` [Compound 104, 2-(([1,1′-biphenyl]-2-ylmethyl)thio)-5-(3-bromobenzyl)-1,3,4-oxadiazole], the EC50 was 42.8 µM in data set [1]; > 50 µM in data set [3] (H3N2, read-out: EC50); > 50 µM in data set [4] (H1N1, read-out: EC50). Moreover, the CC50 in data set [2] (CC50, beside the EC50 of c2) is > 50 µM; in data set [2] (CC50, beside the EC50 of c4), > 50 µM; in data set [2] (setting [5]), > 50 µM.
Take `Cc1nn(Cc2nnc(SCc3ccccc3-c3ccccc3)o2)c(C)c1Br` [Compound 1, 2-(([1,1′-biphenyl]-2-ylmethyl)thio)-5-((4-bromo-3,5-dimethyl-1H-pyrazol-1-yl)methyl)-1,3,4-oxadiazole]: the EC50 came to 0.98 µM in data set [1] (setting [6]), 1.15 µM in data set [3] (setting [8]) and 0.77 µM in data set [4] (setting [9]). The compound further displayed a CC50 in data set [2] (setting [7]) of 41.3 µM.
On to `Brc1ccc(Cc2nnc(Cc3cccc4ccccc34)o2)cc1` [Compound 100, 2-(4-bromobenzyl)-5-(naphthalen-1-ylmethyl)-1,3,4-oxadiazole], for which the EC50 was > 50 µM in data set [1]; 49 µM in data set [3] (H3N2, read-out: EC50); > 50 µM in data set [4] (H1N1, read-out: EC50). Besides, the CC50 was > 50 µM in data set [2] (CC50, beside the EC50 of c2); > 50 µM in data set [2] (CC50, beside the EC50 of c4); > 50 µM in data set [2] (setting [5]).
Take `Cc1ccccc1CSc1nnc(Cn2nc(C)c(Br)c2C)o1` [Compound 9, 2-((4-bromo-3,5-dimethyl-1H-pyrazol-1-yl)methyl)-5-((2-methylbenzyl)thio)-1,3,4-oxadiazole]: the results for the EC50 in data set [1] (setting [6]), in data set [3] (setting [8]) and in data set [4] (setting [9]) were 4.7 µM, 5.55 µM and 4.2 µM, respectively. In addition, in data set [2] (setting [7]), the CC50 was > 50 µM.
In the case of `Cc1ccc(/C=C/c2nnc(Cc3cccc(Br)c3)o2)c(Cl)c1` [Compound 195, 2-(3-bromobenzyl)-5-(2-chloro-4-methylstyryl)-1,3,4-oxadiazole], the EC50 in data set [1] amounted to 5.74 µM; in data set [3] (H3N2, read-out: EC50) it was 5.79 µM; in data set [4] (H1N1, read-out: EC50) it was 6.14 µM. Moreover, the CC50 in data set [2] (CC50, beside the EC50 of c2) was > 50 µM; in data set [2] (CC50, beside the EC50 of c4), > 50 µM; in data set [2] (setting [5]) it was > 50 µM.
Regarding `FC(F)(F)Oc1ccc(Cc2nnc(SCc3ccccc3-c3ccccc3)o2)cc1` [Compound 106, 2-(([1,1′-biphenyl]-2-ylmethyl)thio)-5-(4-(trifluoromethoxy)benzyl)-1,3,4-oxadiazole], the EC50 in data set [1] was found to be 12.1 µM; in data set [3] (H3N2, read-out: EC50) it was 11.8 µM; in data set [4] (H1N1, read-out: EC50), 11.5 µM. Further, the CC50 was > 50 µM in data set [2] (CC50, beside the EC50 of c2); > 50 µM in data set [2] (CC50, beside the EC50 of c4); > 50 µM in data set [2] (setting [5]).
For `Cc1nn(Cc2nnc(SCc3ccccc3-n3cccc3)o2)c(C)c1Br` [Compound 31, 2-((2-(1H-pyrrol-1-yl)benzyl)thio)-5-((4-bromo-3,5-dimethyl-1H-pyrazol-1-yl)methyl)-1,3,4-oxadiazole], the EC50 in data set [1] (setting [6]) was found to be 3.57 µM; in data set [3] (setting [8]), 2.3 µM; in data set [4] (setting [9]), 1.8 µM. The same compound came in with a CC50 in data set [2] (setting [7]) of 11.8 µM.
On to `CC(C)c1ccccc1CCc1nnc(Cc2cccc(Br)c2)o1` [Compound 101, 2-(3-bromobenzyl)-5-(2-isopropylphenethyl)-1,3,4-oxadiazole], for which the EC50 is 36.5 µM in data set [1]; 45.5 µM in data set [3] (H3N2, read-out: EC50); 45.3 µM in data set [4] (H1N1, read-out: EC50). In addition, the CC50 in data set [2] (CC50, beside the EC50 of c2) was > 50 µM; in data set [2] (CC50, beside the EC50 of c4) it was > 50 µM; in data set [2] (setting [5]), > 50 µM.
Take `Cc1nn(Cc2nnc(NCc3ccccc3-c3ccccc3)o2)c(C)c1Br` [Compound 17, N-([1,1′-biphenyl]-2-ylmethyl)-5-((4-bromo-3,5-dimethyl-1H-pyrazol-1-yl)methyl)-1,3,4-oxadiazol-2-amine]: the EC50 in data set [1] (setting [6]) turned out to be 19 µM; in data set [3] (setting [8]), 30 µM; in data set [4] (setting [9]), 35.2 µM. Also, the CC50 in data set [2] (setting [7]) was determined as 38.1 µM.
With `CC(C)c1ccc(Cc2nnc(/C=C/c3ccccc3C(C)C)o2)cc1` [Compound 133, 2-(4-isopropylbenzyl)-5-(2-isopropylstyryl)-1,3,4-oxadiazole], the EC50 stood at 1.97 µM in data set [1]; 1.4 µM in data set [3] (H3N2, read-out: EC50); 2.66 µM in data set [4] (H1N1, read-out: EC50). The CC50 in data set [2] (CC50, beside the EC50 of c2) is > 50 µM; in data set [2] (CC50, beside the EC50 of c4) it was > 50 µM; in data set [2] (setting [5]), > 50 µM.
For the compound `COc1ccccc1/C=C/c1nnc(Cc2cccc(Br)c2)o1` [Compound 210, 2-(3-bromobenzyl)-5-(2-methoxystyryl)-1,3,4-oxadiazole], the EC50 worked out at 36.2 µM in data set [1]; 23.5 µM in data set [3] (H3N2, read-out: EC50); 47.3 µM in data set [4] (H1N1, read-out: EC50). The CC50 in data set [2] (CC50, beside the EC50 of c2) stood at 48.1 µM; in data set [2] (CC50, beside the EC50 of c4), 48.1 µM; in data set [2] (setting [5]), 46.8 µM.
Consider `Cc1ccc(Cc2nnc(/C=C/c3ccccc3C(C)C)o2)cc1C` [Compound 146, 2-(3,4-dimethylbenzyl)-5-(2-isopropylstyryl)-1,3,4-oxadiazole], for which the EC50 in data set [1] turned out to be 3.07 µM; in data set [3] (H3N2, read-out: EC50) it was 3.74 µM; in data set [4] (H1N1, read-out: EC50), 5.27 µM. Besides, the CC50 in data set [2] (CC50, beside the EC50 of c2) was 24.1 µM; in data set [2] (CC50, beside the EC50 of c4), > 50 µM; in data set [2] (setting [5]) it was > 50 µM.
As for `Cc1nn(Cc2nnc(SCc3ccccc3C(C)C)o2)c(C)c1Br` [Compound 23, 2-((4-bromo-3,5-dimethyl-1H-pyrazol-1-yl)methyl)-5-((2-isopropylbenzyl)thio)-1,3,4-oxadiazole], the EC50 in data set [1] (setting [6]) amounted to 0.82 µM; in data set [3] (setting [8]), 1.1 µM; in data set [4] (setting [9]), 0.6 µM. Also, the CC50 in data set [2] (setting [7]) was determined as 14.2 µM.
The corresponding values for `Brc1ccc(OCc2nnc(SCc3ccccc3-c3ccccc3)o2)cc1` [Compound 58, 2-(([1,1′-biphenyl]-2-ylmethyl)thio)-5-((4-bromophenoxy)methyl)-1,3,4-oxadiazole] are > 50 µM, 44.3 µM, > 50 µM and > 50 µM.
The corresponding values for `Cc1nn(Cc2nnc(N(C)Cc3ccccc3-c3ccccc3)o2)c(C)c1Br` [Compound 44, N-([1,1′-biphenyl]-2-ylmethyl)-5-((4-bromo-3,5-dimethyl-1H-pyrazol-1-yl)methyl)-N-methyl-1,3,4-oxadiazol-2-amine] are > 50 µM, 29.4 µM, > 50 µM and > 50 µM.
Take `Cc1cccc(C)c1CCc1nnc(Cc2ccc(Br)cc2)o1` [Compound 135, 2-(4-bromobenzyl)-5-(2,6-dimethylphenethyl)-1,3,4-oxadiazole]: the EC50 amounted to 5.63 µM in data set [1]; 4.38 µM in data set [3] (H3N2, read-out: EC50); 6.4 µM in data set [4] (H1N1, read-out: EC50). The CC50 was > 50 µM in data set [2] (CC50, beside the EC50 of c2); > 50 µM in data set [2] (CC50, beside the EC50 of c4); > 50 µM in data set [2] (setting [5]).
Consider `Brc1ccn(Cc2nnc(SCc3ccccc3-c3ccccc3)o2)n1` [Compound 11, 2-(([1,1′-biphenyl]-2-ylmethyl)thio)-5-((3-bromo-1H-pyrazol-1-yl)methyl)-1,3,4-oxadiazole], for which the EC50 came out at 12.9 µM in data set [1] (setting [6]), 12.5 µM in data set [3] (setting [8]) and 13.2 µM in data set [4] (setting [9]). Besides, the CC50 in data set [2] (setting [7]) is > 50 µM.
The corresponding values for `c1ccc(Cc2nnc(SCc3ccccc3-c3ccccc3)o2)cc1` [Compound 18, 2-(([1,1′-biphenyl]-2-ylmethyl)thio)-5-benzyl-1,3,4-oxadiazole] are 5.18 µM, 6.8 µM, 6.1 µM and > 50 µM.
